Measured values published in patent US9616062B2, “Cyclin dependent kinase inhibitors and methods of use” (priority 2009, dated 2017).

What was measured:
[1] = test system: purified human peripheral B cells (CD19+); assay: Human B cell proliferation after anti-IgM stimulation (BrdU incorporation); type: cell-based
Description: FIG. 20: CDK4/6 inhibitors suppress B cell proliferation after stimulation through BCR. B cells were purified by Automacs selection of CD19+ cells. The BrdU incorporation of purified human peripheral B cells was determined after anti-IgM stimulation with or without CDK4/6 inhibitor treatment. The fraction of proliferating B cells reduced ˜10 fold after L4D inhibition. L4D=2BrIC
Similar results were seen using human lymphocytes. […] Human lymphocytes are sorted to T(CD3+) and B(CD19+) cells and treated in vitro with CDK4/6 inhibitor prior to stimulation with PMA and Inomycin (P+I)+OKT3 (Tcells) or IgM (Bcells), with proliferation assessed by BrdU uptake and Ki67y expression, and activation assessed by CD25 expression. […] In FIG. 15, the effects of CDK4/6 inhibition on specific Tcell fractions is assessed, with and without TCR, showing CDK4/6 inhibition has a greater effect on proliferation of memory cells relative to naïve cells. […] These alterations in proliferation are associated with decreased T cell activation as measured by CD25 expression.
Cohorts of wild type mice were treated with vehicle or a CDK4/6 inhibitor as in FIG. 11. […] Unstimulated mice were treated for 24 hours with PD0332991 and homeostatic B cell proliferation measured by Ki67 staining after appropriate sorting. […]

[2] = test system: human peripheral blood T cells (memory and naive); assay: Human peripheral blood T cell proliferation after PMA and ionomycin stimulation (BrdU, Ki-67 FACS); type: cell-based
Description: FIG. 13: CDK4/6 inhibitors suppress T cell proliferation upon stimulation through TCR pathway in both memory and naïve compartments. Human peripheral blood T cells were purified using Automacs by CD3 positive selection before being treated with CDK4/6 inhibitors and stimulated with PMA and Inomycin for 48 hrs. The proliferation of memory […] T cells after stimulation by PMA and Inomycin was measured by FACS staining of BrdU+ or Ki-67+ cells. The percentages of inhibition are shown, which indicates more inhibition of memory compartment than naïve compartment.
FIG. 14: CDK4/6 inhibitors suppress T cell proliferation upon stimulation through TCR pathway. […] Proliferation determined by BrdU or Ki67 incorporation. […]
FIG. 15: Changes of CD4 T cell composition after CDK4/6 inhibition. […] The memory and terminal differentiated T cell fractions as assessed by BrdU incorporation are reduced after CDK4/6 inhibition. […]
FIG. 16: Changes of CD4 T cell composition after CDK4/6 inhibition. […] The memory and terminal differentiated T cell fractions as assessed by Ki67 staining are reduced after CDK4/6 inhibition. […]
Similar results were seen using human lymphocytes. […] In FIG. 15, the effects of CDK4/6 inhibition on specific Tcell fractions is assessed, with and without TCR, showing CDK4/6 inhibition has a greater effect on proliferation of memory cells relative to naïve cells. […]

[3] = test system: murine memory and naive T cells; assay: Homeostatic T cell proliferation in mice (BrdU incorporation, Ki67); type: in vivo, mouse; settings: murine cells, acute inhibition
Description: FIG. 11A: Acute inhibition of CDK4/6 selectively suppresses memory T cell homeostatic proliferation in mice. Mice were treated with PD0332991 (150 mg/kg by oral gavage). Proliferation of T-cells were assessed using BrdU and flow cytometry.
Animals were treated with CDK4/6 inhibitor (PD0332991, open bars) or vehicle (shaded bars) for 24 hours and euthanized. Splenocytes were isolated and stained for B and T cell markers. After gating on appropriate populations, Ki67 staining was performed as an indicator of proliferation and S-phase. Error bars show +/−SEM.
Acute, pharmacologic inhibition of CDK4/6 suppresses lymphocyte proliferation with the most pronounced effect on memory T cell homeostatic proliferation and germinal center formation in mice. To determine whether inhibiting CDK4/6 affects memory cell generation and maintenance, mice were treated with selective CDK4/6 inhibitors, PD 0332991 or an unrelated selective CDK4/6 inhibitor, 2BrIC. 2BrIC was synthesized by OTAVA Chemicals (Kiev, Ukraine) and can be prepared according to methods described in Zhu et al., J. Med. Chem. 46, 2027-2030 (2003).

[4] = test system: renal cell proliferation in female FVB wt mice; assay: EdU incorporation into whole kidney of cisplatin-treated mice (flow cytometry); type: in vivo, mouse; settings: kidney single cell suspension, 72 h; cisplatin 15 mg/kg IP; PD0332991 100 mg/kg per day in chow or no drug
Description: FIG. 6: CDK4/6 inhibition blocks EdU incorporation into whole kidney in mice treated with cisplatin. […] EdU ([…]) was given IP every 24 hours prior to sacrifice. Kidneys were collected and single cell isolates were prepared and stained for EdU incorporation. Proliferation was assessed by flow cytometry. Data represents % of EdU staining in untreated, cisplatin-treated and cisplatin/PD0332991 treated cells.
[…] Proliferation was assessed by using BrdU (1 mg IP injection) every 6 hours for 24 hours prior to sacrifice or […] (0.1 mg IP) every 24 hours for 3 days prior to sacrifice.
Kidneys were harvested from mice and single cells were isolated using a gentleMACS™ tissue dissociator (Miltinyi Biotec, Bergisch Gladbach, Germany). Briefly, kidneys were cut into small pieces and placed in 10 ml collagenase (1 mg/ml) in a gentleMACS™ C tube (Miltinyi Biotec, Bergisch Gladbach, Germany). Tissue was dissociated following the manufacturer's recommendations (Miltinyi Biotec, Bergisch Gladbach, Germany). Cells were then incubated for 5 minutes in ACK buffer to lyse red blood cells, filtered and pelleted. Cells were resuspended in 4% paraformaldehyde and stored overnight at 4° C. For quantification of EdU incorporation, the cells were fixed, permeabilized, and stained with an APC EdU Flow Kit according to the manufacturer's instruction (Invitrogen Corporation, Carlsbad, Calif., United States of America). Flow cytometric analysis was performed using a CyAn ADP (Dako, Glostrup, Denmark). For each sample, a minimum of 500,000 cells was analyzed and the data were analyzed using FlowJo software (Tree Star, Inc., Ashland, Oreg., United States of America).
The kidney is relatively quiescent until challenged by a renal insult. Therefore, to determine whether renal cell proliferation was dependent on CDK4/6 activity in vivo, renal cell proliferation was stimulated by treating female FVB wt mice with cisplatin, a known nephrotoxic chemotherapeutic agent. At time 0 hr, mice were started on chow delivering PD0332991 100 mg/kg per day or standard chow with no drug. […]

| Structure (SMILES) | reduction of the fraction of proliferating B cells (BrdU) [1] [fold] | proliferation of memory vs naive T cells (BrdU incorporation, Ki67 expression) [2] | homeostatic proliferation of memory vs naive T cells (BrdU incorporation, Ki67 expression) [3] | cells labeled with EdU [4] |
| --- | --- | --- | --- | --- |
| O=C1NC(=O)c2c1c1c3ccccc3[nH]c1c1[nH]c3cc(Br)ccc3c21 [2BrIC, 2-bromo-12,13-dihydro-5H-indolo[2,3-a]pyrrolo[3,4]-carbazole-5,6-dione] | ~10 | more significant decrease in homeostatic proliferation of memory T cells than naive T cells | more significant decrease in homeostatic proliferation of memory T cells than naive T cells | – |
| N.N.[Cl][Pt][Cl] [cisplatin] | – | – | – | approximately 17% |
